How the values were obtained:
[1] = system: kidney-like microspheres (HUVEC, hMSC, HEK, hMC, HK2); type: cell-based, human
Method: Kidney-like organoids were produced in vitro by co-culturing endothelial cells (HUVEC), mesenchymal stem cells (hMSC), and human embryonic kidney cells (HEK) with human mesangial cells (hMC) and human renal tubular cells (HK2). 5×10^4 hMSC, 2×10^5 HUVEC, 5×10^4 HEK, 5×10^4 hMC, and 5×10^4 HK 2 were suspended in 2 ml 10% FCS or MSCGM, and seeded in a MicroWell culture plate. After incubation in a 5% CO2 humidified incubator at 37° C. for 24 hours, formation of cell aggregates and microspheres was observed (FIG. 6). The resulting kidney-like microspheres maintained their spherical morphology for 20 days or longer. • 7. Analysis of Gene Expression
RT-PCR analysis was performed on mRNA of kidney-like microspheres using five types of cells. Total RNA was extracted from the spheres using a TRIzol reagent (Invitrogen), and reverse-transcribed with an oligo (dT) primer using a SuperScript First-Strand Synthesis kit (Invitrogen) to produce first-strand cDNA. Subsequently, PCR was performed to detect the expression of renal tubular cell-specific genes, renal tubular injury marker (epithelial-mesenchymal transition (EMT)) genes, and GAPDH. […] The influence of cisplatin was analyzed by adding cisplatin to the culture solution to a final concentration of 5 μM, and extracting RNA after 3 hours and after 24 hours for analysis. […]

[2] = system: three-dimensional kidney-like tissue (embryonic kidney cells, mesenchymal stem cells, proximal renal tubular cells, vascular endothelial cells); type: cell-based
Method: Embryonic kidney cells, mesenchymal stem cells, proximal renal tubular cells, and vascular endothelial cells were co-cultured for 24 hours to obtain a self-organized, three-dimensional kidney-like tissue (FIG. 9 (A)). This was exposed to cisplatin at a concentration of 5 μM, and spheres were collected after 3 hours and after 24 hours. After extraction of RNA, changes in gene expression were analyzed by the RT-PCR method. After the culture solution of the spheres was collected and cell components were separated by centrifugation, β2 microglobulin was measured with a “Lumipulse Presto β2-M” (produced by Fujirebio, Inc.) kit (FIG. 9 (B)). Further, changes in the shape of the spheres were imaged using an optical microscope (FIG. 9 (C)). […] Use of Microspheres as Kidney Model (Podocyte Injury)

[3] = system: three-dimensional kidney-like tissue (embryonic kidney cells, mesenchymal stem cells, vascular endothelial cells); experiment: Kidney model (podocyte injury): three-dimensional kidney-like tissue exposed to puromycin, nephrin qRT-PCR; type: cell-based; settings: puromycin 50 μg/ml, 24 hours, qRT-PCR (FIG. 10)
Method: Embryonic kidney cells, mesenchymal stem cells, and vascular endothelial cells were co-cultured for 24 hours to obtain a self-organized, three-dimensional kidney-like tissue. The kidney-like tissue was exposed to puromycin at a concentration of 50 μg/ml. After 24 hours, spheres were collected. After extraction of RNA, changes in nephrin gene expression were analyzed by the qRT-PCR method (FIG. 10). […] Using this model allows for screening an effective drug for podocyte injury. • 12. Use as Pathophysiological Analysis System for Human Refractory Renal Disease

In the case of `CN(C)C(=N)N=C(N)N` [metformin], the “abnormal changes in gene expression in acute kidney injury caused by cisplatin” value ([1]; pre-administration, 3 hours after cisplatin administration (left side of FIG. 7)) is reported as “inhibited”.

With `N.N.[Cl][Pt][Cl]` [cisplatin] the “expression of genes constitutively expressed in podocytes” value [1] was “reduction” and the “renal damage reflected by analysis results (gene expression, β2 microglobulin, sphere shape)” value [2] was “renal tubular injury at the acute phase and podocyte injury at the chronic phase”.

For `COc1ccc(C[C@H](N)C(=O)N[C@H]2[C@@H](O)[C@H](n3cnc4c(N(C)C)ncnc43)O[C@@H]2CO)cc1` [puromycin], the “podocyte injury (changes in nephrin gene expression)” value [3] was “podocyte injury model, which was conventionally prepared by using mice, can be reproduced”.
